ChEMBL document CHEMBL3525934 (Drug Metab Dispos, 2013)

B1: Cytochrome P450 2D6 (Homo sapiens) (protein)
chain: MGLEALVPLAVIVAIFLLLVDLMHRRQRWAARYPPGPLPLPGLGNLLHVDFQNTPYCFDQLRRRFGDVFSLQLAWTPVVVLNGLAAVREALVTHGEDTADRPPVPITQILGFGPRSQGVFLARYGPAWREQRRFSVSTLRNLGLGKKSLEQWVTEEAACLCAAFANHSGRPFRPNGLLDKAVSNVIASLTCGRRFEYDDPRFLRLLDLAQEGLKEESGFLREVLNAVPVLLHIPALAGKVLRFQKAFLTQLDELLTEHRMTWDPAQPPRDLTEAFLAEMEKAKGNPESSFNDENLRIVVADLFSAGMVTTSTTLAWGLLLMILHPDVQRRVQQEIDDVIGQVRRPEMGDQAHMPYTTAVIHEVQRFGDIVPLGVTHMTSRDIEVQGFRIPKGTTLITNLSSVLKDEAVWEKPFRFHPEHFLDAQGHFVKPEAFLPFSAGRRACLGEPLARMELFLFFTSLLQHFSFSVPTGQPRPSHHGVFAFLVSPSPYELCAVPR

Columns and labels:
Format in all cases: ADME
Liver microsome = test: Drug level in pooled human liver microsomes treated with clozapine at 100 uM after 30 mins by HPLC analysis; conditions: 0.5 h
[1] = substrate: CN1CCN(C2=Nc3cc(Cl)ccc3Nc3ccccc32)CC1; test: Drug metabolism in supersomes expressing human recombinant CYP2D6 assessed as enzyme-mediated N-demethyl clozapine metabolite formation after 15 mins by Michaelis-Menten equation analysis
[2] = substrate: CN1CCN(C2=Nc3cc(Cl)ccc3Nc3ccccc32)CC1; test: Drug metabolism in supersomes expressing human recombinant CYP2D6 assessed as enzyme-mediated total GSH conjugate formation after 15 mins by Michaelis-Menten equation analysis
[3] = substrate: CN1CCN(C2=Nc3cc(Cl)ccc3Nc3ccccc32)CC1; test: Drug metabolism in supersomes expressing human recombinant CYP2D6 assessed as enzyme-mediated clozapine N-oxide metabolite formation after 15 mins by Michaelis-Menten equation analysis

Row | Molecule | Drug metabolism (Liver microsome) | further results
1 | C[N+]1([O-])CCN(C2=Nc3cc(Cl)ccc3Nc3ccccc32)CC1 | metabolite_detected | –
2 | NCCNC1=Nc2cc(Cl)ccc2Nc2ccccc21 | metabolite_detected | –
3 | CN1CCN(C2=Nc3cc(Cl)c(O)cc3Nc3ccccc32)CC1 | metabolite_detected | –
4 | CN1CCN(C2=Nc3c(ccc(Cl)c3O)Nc3ccccc32)CC1 | metabolite_detected | –
5 | CNCCNC1=Nc2cc(Cl)ccc2Nc2ccccc21 | metabolite_detected | –
6 | Clc1ccc2c(c1)N=C(N1CCNCC1)c1ccccc1N2 [N-DESMETHYLCLOZAPINE] | metabolite_detected | –
7 | B1 | – | Km [1]: 25.3 µM; Km [2]: 21.9 µM; Km [3]: 84.1 µM
